Measurements published in PubChem BioAssay AID1919008 (Molecular Pharmacology Branch, DTP, NCI, 2023).

System: DMS-114 complex spheroids with HUVEC/MSC, growth % test/control
Assay: Anticancer human tumor DMS-114 cell line growth inhibition [AhR];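 note: spheroids exposed to agents for 7 days before readout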;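 for viability, T/C: 100% = DMSO vehicle control wells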
Conditions: for IC50: curve of first compound; for viability, T/C: stronger effect = lower value
In short: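 Complex tumor spheroids co-cultured with HUVEC and human MSC stroma; AhR antagonists tested in combination with standard-of-care and investigational agents. Top concentration at or near clinical Cmax (else 10 microM), half-log dilutions; growth expressed as percent test/control.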

[1] = second compound 0.1 µM, first compound 0.0316 µM
[2] = second compound 0.1 µM, first compound 0.1 µM
[3] = second compound 0.1 µM, first compound 0.316 µM
[4] = second compound 0.1 µM, first compound 1 µM
[5] = second compound 0.1 µM, first compound 3.16 µM
[6] = second compound 0.1 µM, first compound 10 µM
[7] = second compound 0.316 µM, first compound 0.0316 µM
[8] = second compound 0.316 µM, first compound 0.1 µM
[9] = second compound 0.316 µM, first compound 0.316 µM
[10] = second compound 0.316 µM, first compound 1 µM
[11] = second compound 0.316 µM, first compound 3.16 µM
[12] = second compound 0.316 µM, first compound 10 µM
[13] = second compound 1 µM, first compound 0.0316 µM
[14] = second compound 1 µM, first compound 0.1 µM
[15] = second compound 1 µM, first compound 0.316 µM
[16] = second compound 1 µM, first compound 1 µM
[17] = second compound 1 µM, first compound 3.16 µM
[18] = second compound 1 µM, first compound 10 µM
[19] = second compound 3.16 µM, first compound 0.0316 µM
[20] = second compound 3.16 µM, first compound 0.1 µM
[21] = second compound 3.16 µM, first compound 0.316 µM
[22] = second compound 3.16 µM, first compound 1 µM
[23] = second compound 3.16 µM, first compound 3.16 µM
[24] = second compound 3.16 µM, first compound 10 µM
[25] = second compound 10 µM, first compound 0.0316 µM
[26] = second compound 10 µM, first compound 0.1 µM
[27] = second compound 10 µM, first compound 0.316 µM
[28] = second compound 10 µM, first compound 1 µM
[29] = second compound 10 µM, first compound 3.16 µM
[30] = second compound 10 µM, first compound 10 µM

COc1ccc([C@@H](O)c2cc(-c3ncnc4cc(N5CCOCC5)ccc34)c(F)cc2Cl)nn1 + Cc1cncc(-c2nc(NCCc3c[nH]c4ccccc34)c3ncn(C(C)C)c3n2)c1
IC50 (second compound 0.1 µM): > 10 µM | IC50 (second compound 0.316 µM): > 10 µM | IC50 (second compound 1 µM): > 10 µM | IC50 (second compound 3.16 µM): 7.74 µM | IC50 (second compound 10 µM): < 0.0316 µM | viability, T/C [1]: 125% | viability, T/C [2]: 95.8% | viability, T/C [3]: 102% | viability, T/C [4]: 104% | viability, T/C [5]: 107% | viability, T/C [6]: 55.7% | viability, T/C [7]: 101% | viability, T/C [8]: 93% | viability, T/C [9]: 96.2% | viability, T/C [10]: 104% | viability, T/C [11]: 87.5% | viability, T/C [12]: 52.2% | viability, T/C [13]: 98.7% | viability, T/C [14]: 103% | viability, T/C [15]: 99.8% | viability, T/C [16]: 107% | viability, T/C [17]: 94.4% | viability, T/C [18]: 53.2% | viability, T/C [19]: 87% | viability, T/C [20]: 90.1% | viability, T/C [21]: 98.7% | viability, T/C [22]: 94.5% | viability, T/C [23]: 85.4% | viability, T/C [24]: 39.5% | viability, T/C [25]: 35.6% | viability, T/C [26]: 38.9% | viability, T/C [27]: 29.7% | viability, T/C [28]: 29.7% | viability, T/C [29]: 17.9% | viability, T/C [30]: 12.4%

CCN(c1cc(-c2ccc(CN3CCOCC3)cc2)cc(C(=O)NCc2c(C)cc(C)[nH]c2=O)c1C)C1CCOCC1 + Cc1ccccc1N=Nc1ccc(NC(=O)c2ccnn2C)c(C)c1
IC50 (second compound 0.1 µM): > 3 µM | IC50 (second compound 0.316 µM): > 3 µM | IC50 (second compound 1 µM): > 3 µM | IC50 (second compound 3.16 µM): > 3 µM | IC50 (second compound 10 µM): > 3 µM | viability, T/C (second compound 0.1 µM, first compound 0.00949 µM): 97.5% | viability, T/C (second compound 0.1 µM, first compound 0.03 µM): 105% | viability, T/C (second compound 0.1 µM, first compound 0.0949 µM): 111% | viability, T/C (second compound 0.1 µM, first compound 0.3 µM): 114% | viability, T/C (second compound 0.1 µM, first compound 0.949 µM): 101% | viability, T/C (second compound 0.1 µM, first compound 3 µM): 102% | viability, T/C (second compound 0.316 µM, first compound 0.00949 µM): 105% | viability, T/C (second compound 0.316 µM, first compound 0.03 µM): 101% | viability, T/C (second compound 0.316 µM, first compound 0.0949 µM): 104% | viability, T/C (second compound 0.316 µM, first compound 0.3 µM): 113% | viability, T/C (second compound 0.316 µM, first compound 0.949 µM): 108% | viability, T/C (second compound 0.316 µM, first compound 3 µM): 100% | viability, T/C (second compound 1 µM, first compound 0.00949 µM): 108% | viability, T/C (second compound 1 µM, first compound 0.03 µM): 101% | viability, T/C (second compound 1 µM, first compound 0.0949 µM): 110% | viability, T/C (second compound 1 µM, first compound 0.3 µM): 110% | viability, T/C (second compound 1 µM, first compound 0.949 µM): 112% | viability, T/C (second compound 1 µM, first compound 3 µM): 98.8% | viability, T/C (second compound 3.16 µM, first compound 0.00949 µM): 108% | viability, T/C (second compound 3.16 µM, first compound 0.03 µM): 104% | viability, T/C (second compound 3.16 µM, first compound 0.0949 µM): 110% | viability, T/C (second compound 3.16 µM, first compound 0.3 µM): 102% | viability, T/C (second compound 3.16 µM, first compound 0.949 µM): 107% | viability, T/C (second compound 3.16 µM, first compound 3 µM): 105% | viability, T/C (second compound 10 µM, first compound 0.00949 µM): 106% | viability, T/C (second compound 10 µM, first compound 0.03 µM): 104% | viability, T/C (second compound 10 µM, first compound 0.0949 µM): 102% | viability, T/C (second compound 10 µM, first compound 0.3 µM): 108% | viability, T/C (second compound 10 µM, first compound 0.949 µM): 103% | viability, T/C (second compound 10 µM, first compound 3 µM): 102%

Nc1ccccc1NC(=O)c1ccc(CNC(=O)OCc2cccnc2)cc1 + Cc1cncc(-c2nc(NCCc3c[nH]c4ccccc34)c3ncn(C(C)C)c3n2)c1
IC50 (second compound 0.1 µM): 0.592 µM | IC50 (second compound 0.316 µM): 0.574 µM | IC50 (second compound 1 µM): 0.61 µM | IC50 (second compound 3.16 µM): 0.348 µM | IC50 (second compound 10 µM): < 0.0316 µM | viability, T/C [1]: 97.9% | viability, T/C [2]: 87.5% | viability, T/C [3]: 63.4% | viability, T/C [4]: 39.5% | viability, T/C [5]: 16.3% | viability, T/C [6]: 9.46% | viability, T/C [7]: 89.1% | viability, T/C [8]: 82.1% | viability, T/C [9]: 61.4% | viability, T/C [10]: 39.2% | viability, T/C [11]: 17.5% | viability, T/C [12]: 8.03% | viability, T/C [13]: 85.8% | viability, T/C [14]: 88.4% | viability, T/C [15]: 64.2% | viability, T/C [16]: 38.1% | viability, T/C [17]: 16.9% | viability, T/C [18]: 8.49% | viability, T/C [19]: 89.6% | viability, T/C [20]: 68.2% | viability, T/C [21]: 57% | viability, T/C [22]: 28.2% | viability, T/C [23]: 12.7% | viability, T/C [24]: 8.11% | viability, T/C [25]: 32% | viability, T/C [26]: 34.8% | viability, T/C [27]: 26.3% | viability, T/C [28]: 10.3% | viability, T/C [29]: 3.46% | viability, T/C [30]: 3.1%

CC1COCCN1c1cc(C2(S(C)(=N)=O)CC2)nc(-c2ccnc3[nH]ccc23)n1 (stereo not given) + Cc1cncc(-c2nc(NCCc3c[nH]c4ccccc34)c3ncn(C(C)C)c3n2)c1
IC50 (second compound 0.1 µM): 6.13 µM | IC50 (second compound 0.316 µM): 5.18 µM | IC50 (second compound 1 µM): 5.9 µM | IC50 (second compound 3.16 µM): 4.84 µM | IC50 (second compound 10 µM): 0.933 µM | viability, T/C [1]: 98.5% | viability, T/C [2]: 96% | viability, T/C [3]: 119% | viability, T/C [4]: 115% | viability, T/C [5]: 81.9% | viability, T/C [6]: 26.5% | viability, T/C [7]: 105% | viability, T/C [8]: 111% | viability, T/C [9]: 100% | viability, T/C [10]: 99.9% | viability, T/C [11]: 64.1% | viability, T/C [12]: 31% | viability, T/C [13]: 122% | viability, T/C [14]: 119% | viability, T/C [15]: 114% | viability, T/C [16]: 87.7% | viability, T/C [17]: 77.3% | viability, T/C [18]: 30.2% | viability, T/C [19]: 98% | viability, T/C [20]: 85.7% | viability, T/C [21]: 93.5% | viability, T/C [22]: 81.1% | viability, T/C [23]: 64.3% | viability, T/C [24]: 26% | viability, T/C [25]: 53% | viability, T/C [26]: 52.3% | viability, T/C [27]: 67.7% | viability, T/C [28]: 41.7% | viability, T/C [29]: 39.8% | viability, T/C [30]: 19.3%

COc1cccc2c1C(=O)c1c(O)c3c(c(O)c1C2=O)CC(O)(C(=O)CO)CC3OC1CC(N)C(O)C(C)O1 (stereo not given) + CC(CO)NC(=O)c1cc(-c2ccc(Cl)cc2)nn(-c2cnn(C)c2)c1=O
IC50 (second compound 0.1 µM): < 0.0316 µM | IC50 (second compound 0.316 µM): 0.034 µM | IC50 (second compound 1 µM): < 0.0316 µM | IC50 (second compound 3.16 µM): < 0.0316 µM | IC50 (second compound 10 µM): < 0.0316 µM | viability, T/C [1]: 40.4% | viability, T/C [2]: 34.1% | viability, T/C [3]: 8.85% | viability, T/C [4]: 1.01% | viability, T/C [5]: 0.27% | viability, T/C [6]: 0.6% | viability, T/C [7]: 51.2% | viability, T/C [8]: 31.4% | viability, T/C [9]: 8.15% | viability, T/C [10]: 0.97% | viability, T/C [11]: 0.59% | viability, T/C [12]: 0.6% | viability, T/C [13]: 48.8% | viability, T/C [14]: 33.5% | viability, T/C [15]: 10.3% | viability, T/C [16]: 0.95% | viability, T/C [17]: 0.33% | viability, T/C [18]: 0.54% | viability, T/C [19]: 43.9% | viability, T/C [20]: 35.4% | viability, T/C [21]: 9.19% | viability, T/C [22]: 0.92% | viability, T/C [23]: 1.14% | viability, T/C [24]: 0.73% | viability, T/C [25]: 43.4% | viability, T/C [26]: 27.3% | viability, T/C [27]: 9.28% | viability, T/C [28]: 0.38% | viability, T/C [29]: 0.32% | viability, T/C [30]: 0.4%
